In this experiment the target is T. gondii ME49Luc in IFN-y HeLa, luciferase, 72 h. Description: T. gondii growth inhibition with IFN-gamma, dose response, cell-based, ME49Luc, HeLa, luciferase, 72 h (AID 1259418).

Several values for one entry are separate records, joined by “and”; a condition that tells them apart may be missing. Identical values can stand only once. Results filed as inconclusive are left out. Activity calls are given as the source filed them.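 The calls were made as follows: active = fitted half-maximal concentration of signal decrease at or below twice the sample's top tested concentration; inconclusive = flat curve between -70 and -30 percent, or poor fit; inactive = flat within 30 percent, signal rise, or potency above limit.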 Where only a bound is given, the exact number is not on record here.

For `O=C(NCc1ccc(F)cc1F)c1cc(-c2cnc(N3CCCC3)nc2)cn1CC1CC1`, the AC50 is 13.2 µM.
The result for `Cc1cc(C(=O)Nc2ccc3c(c2)C(=O)N(C)[C@@H]2CC[C@@H](CC(=O)NCc4ccc(-c5ccccc5)cc4)O[C@@H]2CO3)no1` reads 20.8 µM; that for `CCOc1ccccc1-n1c(C(C)N2CCN(C(=O)COc3ccc(Cl)cc3)CC2)nc2ccccc2c1=O` (stereo not drawn), 7.75 µM; that for `Cc1oc(-c2cccc(Cl)c2)nc1CN(c1ccccc1)S(=O)(=O)c1cccs1`, 10.4 µM.
The result for `O=C(Nc1cccc(F)c1)N1CCCCN2[C@H](CO)[C@H](c3ccc(C#Cc4cccnc4)cc3)[C@H]2C1` reads 19.3 µM; that for `O=C(Cc1ccncc1)N1CCCCN2[C@H](C1)[C@@H](c1ccc(C#Cc3ccccc3F)cc1)[C@@H]2CO`, 5.02 µM; that for `COc1ccccc1C(=O)Nc1ccc(-c2nc(-c3ccc(C)cc3C)co2)cc1`, 9.34 µM and 18.2 µM.
The result for `O=C(CC1N=C2c3ccccc3N=C(SCc3ccccc3Cl)N2C1=O)NCCc1ccccc1` (stereo not drawn) reads 15.9 µM; that for `O=C(CC1Nc2c3ccccc3nc(=S)n2C1=O)NCc1ccccc1Cl` (stereo not drawn), 28.7 µM; that for `COc1cccc(NC(=O)N2CC(=O)N3[C@H](CO)[C@@H](c4ccc(C#CCC5CCCC5)cc4)[C@@H]3C2)c1`, 11.9 µM and 9.9 µM.
On to `O=S(=O)(c1ccc2c(c1)CCCC2)N1CCC2(CC1)NCCN=C2NCc1ccc(Cl)cc1`, for which the AC50 is 9.16 µM.
For `O=C(c1cnccn1)N1CC(=O)N2[C@H](CO)[C@H](c3ccc(-c4cccc(F)c4)cc3)[C@H]2C1`, the AC50 is 13.9 µM and 25 µM.
The result for `Cc1ccc2c(c1C)-n1cccc1C1(CCN(C(=O)c3ccccc3Br)CC1)N2` reads 17.7 µM; that for `Cc1ccc(N2CC(NC(=O)C(=O)c3c[nH]c4ccccc34)CC2=O)cc1` (stereo not drawn), > 39 µM (inactive); that for `Cc1ccc(-c2cc(O)c3c(c2)CN(C(=O)CCN2CCCO2)CCO3)s1`, 13.5 µM.
Take `O=C(NCc1cccnc1)C1CCN(Cc2cc3ccccc3n2Cc2ccc(F)cc2)CC1`: the AC50 is 38.3 µM.
For the compound `O=C(CC1N=C2c3ccccc3N=C(SCc3cccc(F)c3)N2C1=O)NC1CCCCC1` (stereo not drawn), the AC50 is 30 µM.
In the case of `COc1ccc(CNc2nc(SCc3ccc(Cl)cc3)nc3ccccc23)cc1` it was 35.5 µM.
`CCc1nc(OCC(=O)Nc2ccc(Cl)cc2Cl)c2ccccc2n1`: the AC50 is 30 µM.
In the case of `COc1cccc(C(=O)Nc2ccc3c(c2)C(=O)N(C)[C@H]2CC[C@@H](CC(=O)N[C@@H](C)c4ccccc4)O[C@H]2CO3)c1` it was > 39 µM (inactive); in that of `COc1ccccc1N(Cc1nc(-c2ccc(C)cc2)oc1C)S(=O)(=O)c1ccc(C)cc1`, 10.3 µM.
In the case of `Cc1nc(OCC(=O)Nc2ccc(Br)cc2F)c2ccccc2n1` it was 21 µM; in that of `COc1cccc(NC(=O)N2CC(=O)N3[C@H](C2)[C@H](c2ccc(C#CCC4CCCC4)cc2)[C@@H]3CO)c1`, 14.2 µM and 9.85 µM.
The result for `Cc1ccc(-c2nc(Cn3nnc(-c4nc(-c5ccccc5)no4)c3C)c(C)o2)cc1` reads > 20 µM (inactive); that for `Cc1ccc(CNC(=O)COc2nc(C)nc3ccccc23)cc1`, > 39 µM (inactive).
Consider `CS(=O)(=O)N1CCC(C(=O)NCCc2csc(-c3cccs3)n2)CC1`, for which the AC50 was > 39 µM (inactive).
`O=C(NCCc1csc(-c2ccccc2)n1)C1CCN(C(=O)c2ccco2)CC1`: the AC50 is > 39 µM (inactive).
In the case of `CCc1ccc(S(=O)(=O)N2CCC[C@@H]2C(=O)NCCc2csc(-c3ccccc3)n2)cc1` it was 21.8 µM.
In the case of `COc1ccc2c(c1)NC1(CCN(C(=O)c3ccc(F)cc3)CC1)c1cccn1-2` it was > 20 µM (inactive); in that of `Cc1cc(Nc2cc(N3CCN(C)CC3)nc(Sc3ccc(NC(=O)C4CC4)cc3)n2)n[nH]1`, 13.8 µM.
The result for `COc1ccc(N2CC(NC(=O)C(=O)c3c[nH]c4ccccc34)CC2=O)cc1` (stereo not drawn) reads 28.3 µM; that for `CCCC#Cc1ccc([C@@H]2[C@H]3CN(C(=O)Nc4cccc(F)c4)CC(=O)N3[C@H]2CO)cc1`, 17.4 µM; that for `COc1cccc(-c2ccc3c(c2)[C@@H]2[C@@H](CCN2S(=O)(=O)c2ccccc2F)[C@@H](CO)N3)c1`, 25.4 µM.
For `O=S1(=O)c2ccccc2OCC2(CCN(Cc3ccc(F)cc3)CC2)CN1CC1CC1`, the AC50 is 26.6 µM.
The result for `COc1ccc(-c2nc(NCC3CCN(Cc4ccc(C)cc4)CC3)c3ccccc3n2)cc1` reads 8.66 µM; that for `CC(C)NC(=O)N1CC(=O)N2[C@@H](CO)[C@H](c3ccc(/C=C/c4ccccc4)cc3)[C@@H]2C1`, 16.8 µM; that for `O=C(c1ccc(F)cc1)N1CC(=O)N2[C@H](C1)[C@@H](c1ccc(C#CCC3CCCC3)cc1)[C@@H]2CO`, 20.4 µM and 10.1 µM.
In the case of `O=C(C[C@H]1CC[C@H]2[C@@H](COC[C@@H](O)CN2Cc2ccc(Oc3ccccc3)cc2)O1)N1CCN(c2ccccc2)CC1` it was 15.2 µM and 32.3 µM.
For `Cn1c2ccccc2c2c1cc(C(=O)N1CCN(c3ccncc3)CC1)n2S(C)(=O)=O`, the AC50 was 26.6 µM.
In the case of `CCOc1ccccc1N(Cc1nc(-c2ccc(OC)cc2)oc1C)S(=O)(=O)c1ccccc1` it was 6.35 µM.
The result for `O=C(NC1CCCCC1)N1C[C@@H]2N[C@H](C1)C2c1ccc(-c2ccc(F)cc2)cc1` (stereo partly drawn) reads 22.7 µM; that for `COc1cc(NC(=O)Nc2ccc(-c3nc(-c4cc(C)ccc4C)co3)cc2)cc(OC)c1`, 9.46 µM; that for `O=C(Cc1ccncc1)N1C[C@@H]2N[C@H](C1)C2c1ccc(/C=C/c2ccccc2)cc1` (stereo partly drawn), 20.9 µM.
Take `CCCCNC(=O)CCC1N=C2c3ccccc3N=C(SCc3cccc(Cl)c3)N2C1=O` (stereo not drawn): the AC50 was 14.6 µM.
The result for `O=C(C[C@H]1CC[C@@H]2[C@H](COC[C@@H](O)CN2Cc2ccc(Oc3ccccc3)cc2)O1)N1CCN(c2ccccc2)CC1` reads 24 µM.
For `COc1ccc(-c2nc(NC3CCN(Cc4ccccc4)CC3)c3ccccc3n2)cc1`, the AC50 is 26.3 µM.
The result for `COc1ccccc1N1CCN(C(=O)CC2Nc3c4ccccc4nc(=S)n3C2=O)CC1` (stereo not drawn) reads 20.3 µM; that for `COc1cccc(NC(=O)Nc2ccc(-c3nc(-c4ccc(C)cc4C)co3)cc2)c1`, > 39 µM (inactive); that for `CC(C)COC1CC2(CCN(C(=O)c3cccn3C)CC2)C1`, 14.6 µM.
The result for `O=S(=O)(c1cccs1)N1CCCCN2[C@H](C1)[C@@H](c1ccc(/C=C/c3ccccc3)cc1)[C@@H]2CO` reads 15.3 µM; that for `CCN(CC)CCO[C@H]1CC[C@@]2(C)C(=CC[C@@H]3[C@@H]2CC[C@]2(C)C(=O)CC[C@@H]32)C1`, 12 µM; that for `COc1ccc(S(=O)(=O)N(Cc2nc(-c3cccc(C)c3)oc2C)c2ccccc2OC)cc1`, 6 µM.
The result for `O=C(Cc1cccnc1)N1CC(=O)N2[C@H](CO)[C@H](c3ccc(C#CC4CCCCC4)cc3)[C@H]2C1` reads 19.4 µM; that for `O=S(=O)(c1cccs1)N1CCC2(CC1)NCCN=C2NCc1ccc(Cl)cc1`, > 39 µM (inactive); that for `Cc1cccc(-c2ccc([C@@H]3[C@@H](CO)N4C(=O)CN(C(=O)c5ccc6c(c5)OCO6)C[C@H]34)cc2)c1`, 18.8 µM.
As to `Cc1ccc(C(=O)Nc2c(C(=O)NCc3cccnc3)[nH]c3ccccc23)cc1`, the AC50 is > 39 µM (inactive).
In the case of `Cc1ccc(C)c(S(=O)(=O)N2CCC3(CC2)NCCN=C3NCc2ccccc2Cl)c1` it was 5.36 µM; in that of `COc1cccc(CNC2=NCCNC23CCN(S(=O)(=O)c2ccc(Cl)s2)CC3)c1`, 11.6 µM.

A word on the AC50: it is the concentration giving half of the maximal activity seen.

The record behind these values is PubChem BioAssay AID1259418 (Broad Institute, 2018).
